According to patent US8536354B2, “Steroidal ligands and their use in gene switch modulation” (Intrexon Corporation, priority 2008, dated 2013):
In brackets after ≈: the same amount, converted by molar mass. Several values for one entry are separate records, joined by “and”; a condition that tells them apart may be missing. Equal values may be shown once. Read-outs that look alike come from different tables or passages of the source.

Experiments:
[1] = tested on: EcRs (lepidopteran and non-lepidopteran); assay: Two-hybrid gene switch assays, statements across the set of ten EcRs in NIH3T3 cells; details: for activity across the tested set of EcRs: FIGS. 13 and 14
[2] = molecular target: Bemisia argentifolii EcR (BaEcR-DEF) (Bemisia argentifolii (Bemisia tabaci biotype B / MEAM1), UniProt A0A6M3RDR8); assay: Two-hybrid gene switch assay, BaEcR-DEF in NIH3T3 cells
[3] = molecular target: T1, Bombyx mori EcR (BmEcR) (Bombyx mori, UniProt P49881); assay: Two-hybrid gene switch assay, BmEcR in NIH3T3 cells; details: BmEcR, Example Two; background FI=3
T1 sequence (P49881 352-589 limits assumed): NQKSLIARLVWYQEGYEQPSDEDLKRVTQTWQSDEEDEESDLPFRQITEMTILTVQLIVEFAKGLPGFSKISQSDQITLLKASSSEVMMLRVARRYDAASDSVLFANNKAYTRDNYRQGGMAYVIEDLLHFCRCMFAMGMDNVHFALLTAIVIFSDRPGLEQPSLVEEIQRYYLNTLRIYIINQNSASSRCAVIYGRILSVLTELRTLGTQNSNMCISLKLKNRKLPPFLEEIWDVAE

[4] = Water solubility measurement (saturated solutions, 25° C., UV absorbance)
Experimental: (§1) Each shake flask was agitated for 60 minutes at room temperature, then allowed to stand for 1 hour at room temperature. […] Absorbance was compared to that of a reference standard at the same absorbance maximum for a 1-2% solution of the same steroid in CH3OH, allowing for up to 10 nM maxima shift due to solvent effect.

[5] = Log D measurement (shake flask, pH 7.4 buffer / octanol); type: physicochemical; details: octanol/pH 7.4 buffer (shake flask), pH 7.4 buffer / water-saturated octanol, read-out: Experimental logD
Experimental: as §1

[6] = molecular target: T2, wild-type Aedes aegypti EcR (AaEcR-DEF) (Aedes aegypti, UniProt P49880); assay: Two-hybrid gene switch assay, AaEcR-DEF in NIH3T3 cells
T2 sequence (P49880 405-776 limits assumed): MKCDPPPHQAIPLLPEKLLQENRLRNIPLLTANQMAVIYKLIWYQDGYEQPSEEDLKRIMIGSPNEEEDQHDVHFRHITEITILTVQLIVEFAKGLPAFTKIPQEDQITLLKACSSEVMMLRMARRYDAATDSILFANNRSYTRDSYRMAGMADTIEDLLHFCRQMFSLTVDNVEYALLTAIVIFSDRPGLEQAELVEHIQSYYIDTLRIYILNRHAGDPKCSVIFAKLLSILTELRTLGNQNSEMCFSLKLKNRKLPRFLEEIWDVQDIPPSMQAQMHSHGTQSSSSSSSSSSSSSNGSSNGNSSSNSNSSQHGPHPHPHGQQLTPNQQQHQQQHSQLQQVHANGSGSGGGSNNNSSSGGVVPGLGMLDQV

[7] = molecular target: T3, wild-type Choristoneura fumiferana EcR (CfEcR-DEF) (Choristoneura fumiferana, UniProt O77255); assay: Two-hybrid gene switch assay, wild-type CfEcR-DEF (GAL4-EcR / VP16-RXR-USP chimera, luciferase) in NIH3T3 cells
T3 sequence (O77255 219-541): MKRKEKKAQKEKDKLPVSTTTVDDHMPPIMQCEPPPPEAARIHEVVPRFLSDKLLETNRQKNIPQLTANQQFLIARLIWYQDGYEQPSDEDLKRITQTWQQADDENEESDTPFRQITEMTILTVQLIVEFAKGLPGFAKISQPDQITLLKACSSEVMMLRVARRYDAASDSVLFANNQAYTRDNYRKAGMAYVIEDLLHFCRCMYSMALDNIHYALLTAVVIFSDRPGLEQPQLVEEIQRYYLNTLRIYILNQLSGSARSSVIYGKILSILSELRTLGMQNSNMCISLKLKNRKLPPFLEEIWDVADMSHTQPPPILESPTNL
T3 sequence (P28702 299-449 partner): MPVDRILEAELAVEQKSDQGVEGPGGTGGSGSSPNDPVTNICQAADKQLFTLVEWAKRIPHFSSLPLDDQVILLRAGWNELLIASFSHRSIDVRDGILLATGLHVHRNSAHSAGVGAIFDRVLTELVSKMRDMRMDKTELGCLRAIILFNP

[8] = tested on: D. melanogaster BII cell line (expresses the ecdysteroid receptor complex EcR-USP); assay: Drosophila melanogaster BII cell line bioassay (turbidometric; agonist and antagonist versions)
[9] = molecular target: T4, Manduca sexta EcR (MsEcR) (Manduca sexta, UniProt P49883); assay: Two-hybrid gene switch assay, MsEcR-CDEF in NIH3T3 cells; details: MsEcR; alternative 3T3 fibroblast cell stock
T4 sequence (P49883 293-531 limits assumed): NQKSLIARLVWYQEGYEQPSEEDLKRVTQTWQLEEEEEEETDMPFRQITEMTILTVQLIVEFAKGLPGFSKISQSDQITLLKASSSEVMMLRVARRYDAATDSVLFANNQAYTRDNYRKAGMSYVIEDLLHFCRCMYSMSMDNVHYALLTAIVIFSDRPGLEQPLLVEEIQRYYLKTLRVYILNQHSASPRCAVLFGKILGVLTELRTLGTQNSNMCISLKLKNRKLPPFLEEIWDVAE

[10] = molecular target: T5, wild-type Drosophila melanogaster EcR (DmEcR-DEF) (Drosophila melanogaster, UniProt P34021); assay: Two-hybrid gene switch assay, DmEcR-DEF in NIH3T3 cells
T5 sequence (P34021 342-878 limits assumed): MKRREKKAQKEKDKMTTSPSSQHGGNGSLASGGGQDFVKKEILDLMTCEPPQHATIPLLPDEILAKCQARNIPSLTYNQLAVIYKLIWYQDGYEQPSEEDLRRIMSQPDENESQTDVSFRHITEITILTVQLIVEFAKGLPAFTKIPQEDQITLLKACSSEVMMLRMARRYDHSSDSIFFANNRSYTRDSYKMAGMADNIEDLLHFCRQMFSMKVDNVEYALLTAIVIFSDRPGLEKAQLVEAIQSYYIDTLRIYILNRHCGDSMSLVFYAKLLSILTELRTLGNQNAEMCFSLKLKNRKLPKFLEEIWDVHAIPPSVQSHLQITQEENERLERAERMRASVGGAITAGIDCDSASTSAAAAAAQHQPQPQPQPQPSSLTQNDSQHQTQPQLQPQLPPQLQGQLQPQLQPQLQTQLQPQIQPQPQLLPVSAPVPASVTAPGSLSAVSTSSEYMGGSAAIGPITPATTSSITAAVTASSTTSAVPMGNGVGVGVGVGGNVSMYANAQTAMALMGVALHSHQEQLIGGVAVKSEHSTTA

[11] = molecular target: VgEcR/RXR (Drosophila melanogaster, UniProt P34021, E282G/G283S/G286V)
[12] = read-out: EC50 (M), BII bioassay results, D. melanogaster BII cell line, turbidometric
[13] = Drosophila melanogaster, read-out: EC50 (M), BII bioassay results
[14] = wt-CfEcR gene switch, NIH3T3, Example One

Sequence of VgEcR/RXR (P34021 whole entry E282G/G283S/G286V): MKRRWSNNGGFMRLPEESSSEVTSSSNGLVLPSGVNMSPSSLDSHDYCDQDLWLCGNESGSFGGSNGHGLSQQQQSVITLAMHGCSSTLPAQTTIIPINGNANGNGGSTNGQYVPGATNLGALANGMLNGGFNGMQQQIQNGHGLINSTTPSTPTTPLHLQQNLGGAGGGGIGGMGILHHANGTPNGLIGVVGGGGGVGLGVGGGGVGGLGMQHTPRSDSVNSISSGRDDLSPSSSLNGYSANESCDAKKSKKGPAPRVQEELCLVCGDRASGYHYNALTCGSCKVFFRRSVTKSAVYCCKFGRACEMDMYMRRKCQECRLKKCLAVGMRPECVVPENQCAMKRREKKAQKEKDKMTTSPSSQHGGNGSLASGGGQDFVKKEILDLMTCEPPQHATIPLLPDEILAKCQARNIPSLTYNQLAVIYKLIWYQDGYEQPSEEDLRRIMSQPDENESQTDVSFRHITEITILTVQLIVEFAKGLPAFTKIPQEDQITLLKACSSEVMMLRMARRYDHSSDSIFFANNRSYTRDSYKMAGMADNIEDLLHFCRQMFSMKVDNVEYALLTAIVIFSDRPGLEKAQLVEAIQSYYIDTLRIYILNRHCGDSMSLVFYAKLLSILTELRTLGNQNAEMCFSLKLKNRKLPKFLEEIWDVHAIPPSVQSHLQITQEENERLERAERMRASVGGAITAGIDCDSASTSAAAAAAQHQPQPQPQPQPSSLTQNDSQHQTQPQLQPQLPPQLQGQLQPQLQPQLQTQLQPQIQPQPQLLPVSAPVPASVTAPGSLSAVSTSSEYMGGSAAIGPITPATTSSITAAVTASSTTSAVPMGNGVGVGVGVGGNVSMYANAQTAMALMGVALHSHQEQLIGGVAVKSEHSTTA
Sequence of VgEcR/RXR (P19793 whole entry, further chain): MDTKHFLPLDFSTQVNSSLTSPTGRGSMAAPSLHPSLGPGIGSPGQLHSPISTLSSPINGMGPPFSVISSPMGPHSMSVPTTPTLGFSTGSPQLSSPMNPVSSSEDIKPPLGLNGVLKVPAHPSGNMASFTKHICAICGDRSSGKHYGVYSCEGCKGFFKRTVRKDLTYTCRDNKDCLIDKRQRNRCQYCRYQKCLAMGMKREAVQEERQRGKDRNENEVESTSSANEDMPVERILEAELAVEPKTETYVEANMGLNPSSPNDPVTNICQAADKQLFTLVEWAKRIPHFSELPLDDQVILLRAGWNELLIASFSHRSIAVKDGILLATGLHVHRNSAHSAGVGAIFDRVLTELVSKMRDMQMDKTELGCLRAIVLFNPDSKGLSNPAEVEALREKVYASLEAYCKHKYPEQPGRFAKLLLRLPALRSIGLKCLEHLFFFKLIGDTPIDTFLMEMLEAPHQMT
Sequence of Bemisia argentifolii EcR (BaEcR-DEF) (P28702 298-449): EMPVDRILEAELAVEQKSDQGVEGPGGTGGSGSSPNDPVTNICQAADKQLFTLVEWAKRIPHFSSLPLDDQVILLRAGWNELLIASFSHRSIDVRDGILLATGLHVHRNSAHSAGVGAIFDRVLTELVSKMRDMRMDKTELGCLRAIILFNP
Sequence of Bemisia argentifolii EcR (BaEcR-DEF) (A0A6M3RDR8 entry or part of it): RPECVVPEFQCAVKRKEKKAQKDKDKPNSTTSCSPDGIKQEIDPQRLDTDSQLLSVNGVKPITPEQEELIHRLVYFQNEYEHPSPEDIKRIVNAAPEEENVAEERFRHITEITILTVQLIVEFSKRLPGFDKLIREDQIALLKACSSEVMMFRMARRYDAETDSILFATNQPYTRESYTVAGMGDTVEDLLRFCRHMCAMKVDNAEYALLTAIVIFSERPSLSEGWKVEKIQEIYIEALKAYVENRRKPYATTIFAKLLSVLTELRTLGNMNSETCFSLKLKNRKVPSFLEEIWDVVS

CCc1c(OC)cccc1C(=O)NN(C(=O)c1cc(C)cc(C)c1)C(C)(C)C [diacylhydrazine 30]
EC50 ([1]; read-out: potency (EC50), lepidopteran receptors): 3 to 20 nM | EC50 [2]: 6000 nM | diacylhydrazine reference FI [3]: 1776 | solubility ([4]; 25 °C, thermodynamic from solid): 6.2 µg/mL (≈ 16.2 µM) | logD [5]: 3.4 | potency as activator of AaEcR ([6]; Example Two): single digit nM | fold induction at 1 µM ([7]; NIH3T3, 48 h, read-out: reference FI (1 microM)): 806

COC1C[C@H]2C(=O)C=C3[C@H](CC[C@]4(C)[C@@H]([C@@](C)(O)C(CCC(C)(C)O)OC)CC[C@@]34O)[C@@]2(C)CC1O (stereo partly shown) [compound 12, 20-hydroxyecdysone, 3,22-dimethyl ether]
EC50 [8, 12]: 2.2e-07 M | potency of ether relative to parent [9]: lose potency

CO[C@@H]1C[C@H]2C(=O)C=C3[C@H](CC[C@]4(C)[C@@H]([C@@](C)(O)[C@H](O)CCC(C)(C)O)CC[C@@]34O)[C@@]2(C)C[C@@H]1O [compound 2, 20-hydroxyecdysone, 3-methyl ether]
EC50 [8, 12]: 6e-07 M | potency of ether relative to parent [9]: lose potency

CO[C@H](CCC(C)C)[C@](C)(O)C1CC[C@@]2(O)C3=CC(=O)C4C[C@@H](O)[C@@H](O)CC4(C)C3=CCC12C (stereo partly shown) [compound 22, dacryhainansterone, 22-methyl ether]
EC50 [8, 13]: 1e-07 M | RMFI (relative maximum fold induction, relative to diacylhydrazine 30) [7, 14]: ~0.3

CO[C@H](CCC(C)C)[C@](C)(O)[C@H]1CC[C@@]2(O)C3=CC(=O)[C@@H]4C[C@@H](O)[C@@H](O)C[C@]4(C)[C@H]3CC[C@]12C [PoA-22-methyl ether]
rel max FI (diacylhydrazine), DM ([10]; DmEcR, relative to 3,5-dimethyl-benzoic acid N-tert-butyl-N′-(2-ethyl-3-methoxy-benzoyl)-hydrazide): ~0.9 | EC50 ([10]; EC50 (μM), DM, DmEcR, NIH3T3 cells, luciferase, 48 h, ligand 0.01-33 μM): ~0.03 µM | rel max FI (diacylhydrazine), AA ([6]; AaEcR, relative to 3,5-dimethyl-benzoic acid N-tert-butyl-N′-(2-ethyl-3-methoxy-benzoyl)-hydrazide): ~0.8 | EC50 ([6]; EC50 (μM), AA, AaEcR, NIH3T3 cells, luciferase, 48 h, ligand 0.01-33 μM): < 0.01 µM | EC50 [7]: ~2000 nM | Emax ([7]; NIH3T3, 48 h, read-out: rel max FI (diacylhydrazine), CF): 30 to 65%

CO[C@H](CCC(C)(C)O)[C@](C)(O)C1CC[C@@]2(O)C3=CC(=O)C4C[C@@H](O)[C@@H](O)CC4(C)C3CCC12C (stereo partly shown) [compound 4, 20-hydroxyecdysone-22-methyl ether]
BII potency relative to 20E [8]: maintains 20E potency | EC50 [8, 13]: 6.3e-09 M | EC50 ([8]; Drosophila melanogaster, read-out: −log EC50 (converted)): 6.31e-09 M | potency of ether relative to parent [9]: lose potency

CC(C)CC[C@@H](O)[C@](C)(O)[C@H]1CC[C@@]2(O)C3=CC(=O)[C@]4(O)C[C@@H](O)[C@@H](O)C[C@]4(C)[C@H]3[C@H](O)C[C@]12C [muristerone A]
EC50 ([11]; VgEcR/RXR switch in 3T3 cells): 851 nM | EC50 ([11]; VgEcR/RXR system): 851 nM | RMFI ([11]; VgEcR/RXR system): 1.3 | activity across the tested set of EcRs [1]: active | Experimental aqueous solubility ([4]; 25° C.): > 2900 µg/mL | EC50 ([6]; AaEcR gene switch, NIH3T3, Example One): 0.009 µM | EC50 [7, 14]: 7400 nM

CO[C@H]1C[C@@]2(C)[C@@H](C[C@H]1O)C(=O)C=C1[C@@H]2CC[C@]2(C)[C@@H]([C@@](C)(O)[C@H](O)CCC(C)C)CC[C@@]12O [compound 16, ponasterone A, 2-methyl ether]
EC50 [8, 12]: 4.3e-08 M

CO[C@H]1C[C@@]2(C)[C@@H](C[C@H]1O)C(=O)C=C1[C@@H]2CC[C@]2(C)[C@@H]([C@@](C)(O)[C@@H](CCC(C)C)OC)CC[C@@]12O [compound 19, ponasterone A, 2,22-dimethyl ether]
EC50 [8, 12]: 3e-08 M

C=CCO[C@H](CCC(C)(C)O)[C@](C)(O)C1CC[C@@]2(O)C3=CC(=O)C4C[C@@H](O)[C@@H](O)CC4(C)C3CCC12C (stereo partly shown) [compound 7, 20-hydroxyecdysone, 22-allyl ether]
EC50 [8, 13]: 1.6e-07 M

CO[C@H](CCC(C)C)[C@](C)(O)[C@H]1CC[C@@]2(O)C3=CC(=O)[C@@H]4C[C@@H](O)[C@@H](O)C[C@]4(C)[C@H]3CC[C@]12C [compound 18, ponasterone A, 22-methyl ether]
EC50 ([11]; EC50, VgEcR/RXR switch in 3T3 cells): 553 nM | EC50 ([11]; EC50, VgEcR/RXR system): 533 nM | RMFI ([11]; VgEcR/RXR system): 1.5 | EC50 ([10]; EC50, DmEcR gene switch, NIH3T3, Example One): 0.066 µM and ~0.066 µM | EC50 [8, 13]: 2.2e-08 M | EC50 ([6]; EC50, AaEcR gene switch, NIH3T3, Example One): 0.00038 µM | RMFI (relative maximum fold induction, relative to diacylhydrazine 30) [7, 14]: ~0.6

CCO[C@H](CCC(C)(C)O)[C@](C)(O)C1CC[C@@]2(O)C3=CC(=O)C4C[C@@H](O)[C@@H](O)CC4(C)C3CCC12C (stereo partly shown) [compound 5, 20-hydroxyecdysone-22-ethyl ether]
BII potency relative to 20E [8]: slightly less potent than methyl | EC50 [8, 13]: 2.2e-08 M | EC50 [7]: 4850 nM | activation at 5 µM ([7]; NIH3T3, 48 h, read-out: reporter gene induction, % of maximum fold induction): 77% | RMFI (relative maximum fold induction, relative to diacylhydrazine 30) [7, 14]: 0.77

C=C(C)CC[C@@H](O)[C@](C)(O)[C@H]1CC[C@@]2(O)C3=CC(=O)[C@@H]4C[C@@H](O)[C@@H](O)C[C@]4(C)[C@H]3CC[C@]12C [isostachysterone C, 25,26-didehydroponasterone A]
activity across the tested set of EcRs [1]: active
